Measurements from patent publication US20250270213A1, “PI3Ka INHIBITORS” (Synnovation Therapeutics, Inc., priority 2022, published 2025).
pIC50: −log10 of the molar value.

System: T47D (PIK3CA H1047R) cells
Test: pS473 AKT assay with 2.5% FBS, T47D cells
Format: cell-based
Details: Homo sapiens, pSer473 AKT, DMEM with 2.5% FBS, 2 h treatment, read-out: T47D_IC50
In short: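 In-cell chemiluminescent ELISA of AKT Ser473 phosphorylation, using anti-pSer473 primary and HRP secondary antibodies on fixed cells. T47D (PIK3CA H1047R) cells had 2 h of compound treatment in DMEM containing 2.5% FBS; IC50 derived from dose-response.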

| pIC50 | SMILES |
| --- | --- |
| > 6.00 | CCn1ncc2c3c(C(C)Nc4ccc(Cl)nc4-c4ccc(=O)n(C)c4)cc(C)cc3c(=O)n(CC(F)F)c21 (stereo not drawn) [Example 239, 9-(1-((6-chloro-1′-methyl-6′-oxo-1′,6′-dihydro-[2,3′-bipyridin]-3-yl)amino)ethyl)-4-(2,2-difluoroethyl)-3-ethyl-7-methyl-3,4-dihydro-5H-pyrazolo[3,4-c]isoquinolin-5-one] |
| > 6.00 | CCn1ncc2c3c(C(C)Nc4ccc(Cl)nc4-c4ccc(C(=O)NC)nc4)cc(C)cc3c(=O)n(CC(F)F)c21 (stereo not drawn) [Example 240, 6-chloro-3-((1-(4-(2,2-difluoroethyl)-3-ethyl-7-methyl-5-oxo-4,5-dihydro-3H-pyrazolo[3,4-c]isoquinolin-9-yl)ethyl)amino)-N-methyl-[2,3′-bipyridine]-6′-carboxamide] |
| > 6.00 | CCn1ncc2c3c(C(C)Nc4ccc(Cl)nc4C4CCN(C(C)=O)CC4)cc(C)cc3c(=O)n(C)c21 (stereo not drawn) [Example 241, 9-[1-[[2-(1-Acetyl-4-piperidyl)-6-chloro-3-pyridyl]amino]ethyl]-3-ethyl-4,7-dimethyl-pyrazolo[3,4-c]isoquinolin-5-one] |
| > 6.00 | Cc1cc(C(C)Nc2ccc(Cl)nc2-c2ncn(C)n2)c2c(c1)c(=O)n(C)c1c2cnn1CCO (stereo not drawn) [Example 242, 9-(1-((6-Chloro-2-(1-methyl-1H-1,2,4-triazol-3-yl)pyridin-3-yl)amino)ethyl)-3-(2-hydroxyethyl)-4,7-dimethyl-3,4-dihydro-5H-pyrazolo[3,4-c]isoquinolin-5-one] |
| > 6.00 | CNC(=O)c1ccc(-c2nc(Cl)ccc2NC(C)c2cc(C)cc3c(=O)n(C)c4c(cnn4CCO)c23)cc1F (stereo not drawn) [Example 243, 4-(6-chloro-3-((1-(3-(2-hydroxyethyl)-4,7-dimethyl-5-oxo-4,5-dihydro-3H-pyrazolo[3,4-c]isoquinolin-9-yl)ethyl)amino)pyridin-2-yl)-2-fluoro-N-methylbenzamide] |
| > 6.00 | Cc1cc(C(C)Nc2ccc(Cl)nc2-c2cnn(C)c2)c2c(c1)c(=O)n(C)c1c2cnn1CCO (stereo not drawn) [Example 244, 9-(1-((6-chloro-2-(1-methyl-1H-pyrazol-4-yl)pyridin-3-yl)amino)ethyl)-3-(2-hydroxyethyl)-4,7-dimethyl-3,4-dihydro-5H-pyrazolo[3,4-c]isoquinolin-5-one] |
| > 6.00 | Cc1cc(C(C)Nc2ccc(Cl)nc2N2CCC(O)CC2)c2c(c1)c(=O)n(C)c1c2cnn1CCO (stereo not drawn) [Example 245, 9-(1-((6-chloro-2-(4-hydroxypiperidin-1-yl)pyridin-3-yl)amino)ethyl)-3-(2-hydroxyethyl)-4,7-dimethyl-3,4-dihydro-5H-pyrazolo[3,4-c]isoquinolin-5-one] |
| > 6.00 | Cc1cc(C(C)Nc2ccc(Cl)nc2-c2ccc3ncccc3c2)c2c(c1)c(=O)n(C)c1c2cnn1CCO (stereo not drawn) [Example 246, 9-(1-((6-chloro-2-(quinolin-6-yl)pyridin-3-yl)amino)ethyl)-3-(2-hydroxyethyl)-4,7-dimethyl-3,4-dihydro-5H-pyrazolo[3,4-c]isoquinolin-5-one] |
| > 6.00 | Cc1cc(C(C)Nc2ccc(Cl)nc2-c2ccc3c(cnn3C)c2)c2c(c1)c(=O)n(C)c1c2cnn1CCO (stereo not drawn) [Example 247, 9-(1-((6-chloro-2-(1-methyl-1H-indazol-5-yl)pyridin-3-yl)amino)ethyl)-3-(2-hydroxyethyl)-4,7-dimethyl-3,4-dihydro-5H-pyrazolo[3,4-c]isoquinolin-5-one] |
| > 6.00 | Cc1cc(C(C)Nc2ccc(Cl)nc2-c2ccc3c(c2)CN(C)C3=O)c2c(c1)c(=O)n(C)c1c2cnn1CCO (stereo not drawn) [Example 248, 9-(1-((6-chloro-2-(2-methyl-1-oxoisoindolin-5-yl)pyridin-3-yl)amino)ethyl)-3-(2-hydroxyethyl)-4,7-dimethyl-3,4-dihydro-5H-pyrazolo[3,4-c]isoquinolin-5-one] |
| > 6.00 | Cc1cc(C(C)Nc2ccc(C)nc2-c2cnn(C)c2)c2c(c1)c(=O)n(C)c1c2cnn1CCO (stereo not drawn) [Example 249, 3-(2-hydroxyethyl)-4,7-dimethyl-9-(1-((6-methyl-2-(1-methyl-1H-pyrazol-4-yl)pyridin-3-yl)amino)ethyl)-3,4-dihydro-5H-pyrazolo[3,4-c]isoquinolin-5-one] |
| > 6.00 | Cc1cc(C(C)Nc2ccc(Cl)nc2-c2nnco2)c2c(c1)c(=O)n(C)c1c2cnn1CCO (stereo not drawn) [Example 250, 9-(1-((6-chloro-2-(1,3,4-oxadiazol-2-yl)pyridin-3-yl)amino)ethyl)-3-(2-hydroxyethyl)-4,7-dimethyl-3,4-dihydro-5H-pyrazolo[3,4-c]isoquinolin-5-one] |
| > 6.00 | Cc1cc(C(C)Nc2ccc(Cl)nc2-c2nnn(C)n2)c2c(c1)c(=O)n(C)c1c2cnn1CCO (stereo not drawn) [Example 251, 9-(1-((6-chloro-2-(2-methyl-2H-tetrazol-5-yl)pyridin-3-yl)amino)ethyl)-3-(2-hydroxyethyl)-4,7-dimethyl-3,4-dihydro-5H-pyrazolo[3,4-c]isoquinolin-5-one] |
| > 6.00 | Cc1cc(C(C)Nc2ccc(Cl)nc2-c2cncnc2)c2c(c1)c(=O)n(C)c1c2cnn1CCO (stereo not drawn) [Example 252, 9-(1-((6-chloro-2-(pyrimidin-5-yl)pyridin-3-yl)amino)ethyl)-3-(2-hydroxyethyl)-4,7-dimethyl-3,4-dihydro-5H-pyrazolo[3,4-c]isoquinolin-5-one] |
| > 6.00 | CNC(=O)c1ccc(-c2nc(Cl)ccc2NC(C)c2cc(C)cc3c(=O)n(C)c4c(cnn4CCO)c23)cn1 (stereo not drawn) [Example 253, 5-[6-Chloro-3-[1-[3-(2-hydroxyethyl)-4,7-dimethyl-5-oxo-pyrazolo[3,4-c]isoquinolin-9-yl]ethylamino]-2-pyridyl]-N-methyl-pyridine-2-carboxamide] |
| > 6.00 | Cc1cc(C(C)Nc2ccc(Cl)nc2-c2ccc(=O)n(C)c2)c2c(c1)c(=O)n(C)c1c2cnn1CCO (stereo not drawn) [Example 254, 9-[1-[[6-chloro-2-(1-methyl-6-oxo-3-pyridyl)-3-pyridyl]amino]ethyl]-3-(2-hydroxyethyl)-4,7-dimethyl-pyrazolo[3,4-c]isoquinolin-5-one] |
| > 6.00 | Cc1cc(C(C)Nc2ccc(Cl)nc2-c2ccn(C)c(=O)c2)c2c(c1)c(=O)n(C)c1c2cnn1CCO (stereo not drawn) [Example 255, 9-[1-[[6-chloro-2-(1-methyl-2-oxo-4-pyridyl)-3-pyridyl]amino]ethyl]-3-(2-hydroxyethyl)-4,7-dimethyl-pyrazolo[3,4-c]isoquinolin-5-one] |
| > 6.00 | COc1cc(-c2nc(Cl)ccc2NC(C)c2cc(C)cc3c(=O)n(C)c4c(cnn4CCO)c23)ccn1 (stereo not drawn) [Example 256, 9-[1-[[6-chloro-2-(2-methoxy-4-pyridyl)-3-pyridyl]amino]ethyl]-3-(2-hydroxyethyl)-4,7-dimethyl-pyrazolo[3,4-c]isoquinolin-5-one] |
| > 6.00 | Cc1cc(C(C)Nc2ccc(Cl)nc2C2CCN(C)CC2)c2c(c1)c(=O)n(C)c1c2cnn1CCO (stereo not drawn) [Example 257, 9-[1-[[6-Chloro-2-(1-methyl-4-piperidyl)-3-pyridyl]amino]ethyl]-3-(2-hydroxyethyl)-4,7-dimethyl-pyrazolo[3,4-c]isoquinolin-5-one] |
| > 6.00 | CC(=O)N1CCC(c2nc(Cl)ccc2NC(C)c2cc(C)cc3c(=O)n(C)c4c(cnn4CCO)c23)CC1 (stereo not drawn) [Example 258, 9-[1-[[2-(1-Acetyl-4-piperidyl)-6-chloro-3-pyridyl]amino]ethyl]-3-(2-hydroxyethyl)-4,7-dimethyl-pyrazolo[3,4-c]isoquinolin-5-one] |
| > 6.00 | Cc1cc(C(C)Nc2ccc(Cl)nc2-c2ncn(C)n2)c2c(c1)c(=O)n(CC(F)F)c1c2cnn1CCO (stereo not drawn) [Example 259, 9-[1-[[6-Chloro-2-(1-methyl-1,2,4-triazol-3-yl)-3-pyridyl]amino]ethyl]-4-(2,2-difluoroethyl)-3-(2-hydroxyethyl)-7-methyl-pyrazolo[3,4-c]isoquinolin-5-one] |
| > 6.00 | CNC(=O)c1ccc(-c2nc(Cl)ccc2NC(C)c2cc(C)cc3c(=O)n(CC(F)F)c4c(cnn4CCO)c23)cn1 (stereo not drawn) [Example 260, 5-[6-Chloro-3-[1-[4-(2,2-difluoroethyl)-3-(2-hydroxyethyl)-7-methyl-5-oxo-pyrazolo[3,4-c]isoquinolin-9-yl]ethylamino]-2-pyridyl]-N-methyl-pyridine-2-carboxamide] |
| > 6.00 | CCn1c(=O)c2cc(C)cc(C(C)Nc3ccc(Cl)nc3-c3ncn(C)n3)c2c2cnn(CCO)c21 (stereo not drawn) [Example 261, 9-[1-[[6-Chloro-2-(1-methyl-1,2,4-triazol-3-yl)-3-pyridyl]amino]ethyl]-4-ethyl-3-(2-hydroxyethyl)-7-methyl-pyrazolo[3,4-c]isoquinolin-5-one] |
| > 6.00 | CCn1c(=O)c2cc(C)cc(C(C)Nc3ccc(Cl)nc3N3CCOCC3)c2c2cnn(CCO)c21 (stereo not drawn) [Example 262, 9-[1-[(6-Chloro-2-morpholino-3-pyridyl)amino]ethyl]-4-ethyl-3-(2-hydroxyethyl)-7-methyl-pyrazolo[3,4-c]isoquinolin-5-one] |
| > 6.00 | Cc1cc(C(C)Nc2ccc(Cl)nc2-c2cnn(C)c2)c2c(c1)c(=O)n(C)c1c2cnn1CCN1CCOCC1 (stereo not drawn) [Example 263, 9-[1-[[6-Chloro-2-(1-methylpyrazol-4-yl)-3-pyridyl]amino]ethyl]-4,7-dimethyl-3-(2-morpholinoethyl)pyrazolo[3,4-c]isoquinolin-5-one] |
| > 6.00 | Cc1cc(C(C)Nc2ccc(Cl)nc2-c2ccncc2F)c2c(c1)c(=O)n(C)c1c2cnn1CCN1CCOCC1 (stereo not drawn) [Example 264, 9-(1-((6-chloro-3′-fluoro-[2,4′-bipyridin]-3-yl)amino)ethyl)-4,7-dimethyl-3-(2-morpholinoethyl)-3,4-dihydro-5H-pyrazolo[3,4-c]isoquinolin-5-one] |
| > 6.00 | Cc1cc(C(C)Nc2ccc(Cl)nc2-c2ccncc2F)c2c(c1)c(=O)n(C)c1c2cnn1CCN1CCN(C)CC1 (stereo not drawn) [Example 265, 9-(1-((6-chloro-3′-fluoro-[2,4′-bipyridin]-3-yl)amino)ethyl)-4,7-dimethyl-3-(2-(4-methylpiperazin-1-yl)ethyl)-3,4-dihydro-5H-pyrazolo[3,4-c]isoquinolin-5-one] |
